In patent publication US20050159345A1 (Boehringer Ingelheim International GmbH, priority 2002, published 2005):

How the values were obtained:
[1] = system: GBV-B; test: Inhibition of GBV-B replication in tamarin hepatocytes in culture; type: cell-based
Experimental: Hepatocytes isolated from uninfected tamarins were maintained in culture in defined medium for several days. The cell culture model was as described by Beames et al. 2000. Three days after plating, the cells were infected with GBV-B-containing plasma. After viral adsorption, the virus was removed and the cells were incubated in the presence and absence of candidate test compounds at a concentration of 10 μM. The cells were harvested 7 days post infection. The levels of GBV-B RNA were quantitated from total cellular RNA by a real-time PCR assay using a primer-probe combination that recognized a portion of the GBV-B capsid gene (Beames et al. 2000).

[2] = target: T1, HCV genotype 3a NS3-NS4A protease (UniProt Q81258); test: Inhibition constant (Ki) determination, genotype 3a; type: biochemical; conditions: read-out: Ki HCV genotype 3a
T1 construct: fused on or other part: 28 extra N-terminal residues with a hexahistidine tag and an rTEV cleavage site
T1 sequence (Q81258 1033-1663): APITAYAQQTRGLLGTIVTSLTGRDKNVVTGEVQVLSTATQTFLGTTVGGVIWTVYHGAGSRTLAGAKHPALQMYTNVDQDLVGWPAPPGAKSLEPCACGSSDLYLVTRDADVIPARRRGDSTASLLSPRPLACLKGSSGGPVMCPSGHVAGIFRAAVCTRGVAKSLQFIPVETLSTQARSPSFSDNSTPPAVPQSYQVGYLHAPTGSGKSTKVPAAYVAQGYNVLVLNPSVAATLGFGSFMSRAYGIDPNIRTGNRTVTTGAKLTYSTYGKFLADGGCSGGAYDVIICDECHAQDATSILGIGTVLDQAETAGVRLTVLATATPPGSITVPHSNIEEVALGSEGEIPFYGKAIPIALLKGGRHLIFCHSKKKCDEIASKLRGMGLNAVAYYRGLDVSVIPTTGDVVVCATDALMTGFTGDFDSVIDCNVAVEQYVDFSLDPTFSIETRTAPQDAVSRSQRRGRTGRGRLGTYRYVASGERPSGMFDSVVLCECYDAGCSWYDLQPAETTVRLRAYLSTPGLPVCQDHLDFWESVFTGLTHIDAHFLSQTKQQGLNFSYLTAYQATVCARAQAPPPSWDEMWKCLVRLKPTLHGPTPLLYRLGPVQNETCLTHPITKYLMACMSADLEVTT

[3] = target: T2, HCV genotype 2b NS3-NS4A protease (UniProt P26661); test: Inhibition constant (Ki) determination, genotype 2b; type: biochemical; conditions: read-out: Ki HCV genotype 2b
T2 construct: fused on or other part: 28 extra N-terminal residues with a hexahistidine tag and an rTEV cleavage site
T2 sequence (P26661 1031-1661): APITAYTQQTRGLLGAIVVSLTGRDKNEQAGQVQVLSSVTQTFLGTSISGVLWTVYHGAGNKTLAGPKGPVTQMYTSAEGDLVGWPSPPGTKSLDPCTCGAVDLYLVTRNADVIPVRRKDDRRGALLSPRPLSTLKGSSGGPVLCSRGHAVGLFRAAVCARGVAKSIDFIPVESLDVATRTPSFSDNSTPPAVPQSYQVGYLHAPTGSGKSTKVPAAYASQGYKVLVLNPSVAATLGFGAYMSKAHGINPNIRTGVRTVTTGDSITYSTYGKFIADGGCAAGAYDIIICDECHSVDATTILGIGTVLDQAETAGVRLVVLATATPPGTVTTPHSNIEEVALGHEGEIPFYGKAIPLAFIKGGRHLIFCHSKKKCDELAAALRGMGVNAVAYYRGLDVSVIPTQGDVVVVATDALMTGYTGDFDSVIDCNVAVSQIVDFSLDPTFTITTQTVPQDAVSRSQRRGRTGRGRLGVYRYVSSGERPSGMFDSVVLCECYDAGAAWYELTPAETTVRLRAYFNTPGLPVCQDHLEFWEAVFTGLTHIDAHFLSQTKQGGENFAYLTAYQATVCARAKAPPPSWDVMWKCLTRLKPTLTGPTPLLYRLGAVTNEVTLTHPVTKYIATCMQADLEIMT

[4] = target: T3, HCV genotype 1a NS3-NS4A protease (Hepatitis C virus genotype 1a, UniProt P27958); test: Inhibition constant (Ki) determination and mode of inhibition, steady-state velocity, genotype 1a; type: biochemical
T3 construct: Co-purification of mature NS3 and NS4A protein complex was verified by Western blot analysis; made in house; host or cells: Sf21 insect cells, recombinant baculovirus (pFastBac HTa)
T3 sequence (P27958 1027-1657): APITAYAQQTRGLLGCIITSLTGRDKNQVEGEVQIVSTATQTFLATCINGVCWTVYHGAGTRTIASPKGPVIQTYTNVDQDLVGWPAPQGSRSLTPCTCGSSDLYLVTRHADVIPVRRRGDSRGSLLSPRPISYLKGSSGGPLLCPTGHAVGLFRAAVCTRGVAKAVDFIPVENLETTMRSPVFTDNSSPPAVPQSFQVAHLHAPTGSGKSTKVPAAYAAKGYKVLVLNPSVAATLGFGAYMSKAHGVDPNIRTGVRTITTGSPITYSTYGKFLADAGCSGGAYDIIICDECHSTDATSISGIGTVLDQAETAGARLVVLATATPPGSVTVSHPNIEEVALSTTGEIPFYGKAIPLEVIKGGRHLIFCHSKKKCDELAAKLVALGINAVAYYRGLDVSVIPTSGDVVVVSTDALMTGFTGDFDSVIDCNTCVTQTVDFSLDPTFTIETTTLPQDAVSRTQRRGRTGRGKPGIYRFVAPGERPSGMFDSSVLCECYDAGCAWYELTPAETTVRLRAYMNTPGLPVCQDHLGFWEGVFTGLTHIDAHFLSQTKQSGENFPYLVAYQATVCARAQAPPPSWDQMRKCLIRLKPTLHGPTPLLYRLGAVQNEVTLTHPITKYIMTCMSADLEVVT
T3 sequence (P27958 1658-1711): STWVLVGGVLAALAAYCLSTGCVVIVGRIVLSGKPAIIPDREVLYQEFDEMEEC
Experimental: (§1) The fluorogenic depsipeptide substrate anthranilyl-D(d)EIVP-Nva[C(O)—O] AMY(3-N2)TW—OH (SEQ ID No.13) was used to assess the mechanism of inhibition and the inhibition constants of the compound (IV) against HCV NS3-NS4A proteases. It was cleaved between the norvaline and the alanine residues. The substrate working solution was prepared in DMSO at the concentration of 200 μM from the substrate stock solution (2 mM in DMSO stored at —20° C.). The final substrate concentration in the assay varied from 0.25 to 8 μM. The inhibition constant (Ki) for compound (IV) was determined using a steady-state velocity method (Morrisson et al. 1985). The protease activity was determined by monitoring the fluorescence change associated with the cleavage of the internally quenched fluorogenic substrate using a SLM-AMINCO® 8100 spectrofluorometer ([…]). The cleavage reaction was monitored in the presence of 0.25 to 8 μM of substrate, 0.3 nM of HCV 1a or 1b NS3-NS4A heterodimer protein and various concentrations of the test compound IV in 50 mM Tris-HCl, pH 8.0, 0.25M sodium citrate, 0.01% n-dodecyl-β-D-maltoside, 1 mM TCEP. The steady-state analysis of inhibition of the HCV genotype 1a and 1b NS3-NS4A heterodimer proteases were performed using the Dixon and Cornish-Bowden graphical methods. […]

[5] = target: T4, HCV genotype 1b NS3-NS4A protease (UniProt P26662); test: Inhibition constant (Ki) determination and mode of inhibition, steady-state velocity, genotype 1b; type: biochemical
T4 construct: fused on or other part: 28 extra N-terminal residues with a hexahistidine tag and an rTEV cleavage site
T4 sequence (P26662 1027-1657): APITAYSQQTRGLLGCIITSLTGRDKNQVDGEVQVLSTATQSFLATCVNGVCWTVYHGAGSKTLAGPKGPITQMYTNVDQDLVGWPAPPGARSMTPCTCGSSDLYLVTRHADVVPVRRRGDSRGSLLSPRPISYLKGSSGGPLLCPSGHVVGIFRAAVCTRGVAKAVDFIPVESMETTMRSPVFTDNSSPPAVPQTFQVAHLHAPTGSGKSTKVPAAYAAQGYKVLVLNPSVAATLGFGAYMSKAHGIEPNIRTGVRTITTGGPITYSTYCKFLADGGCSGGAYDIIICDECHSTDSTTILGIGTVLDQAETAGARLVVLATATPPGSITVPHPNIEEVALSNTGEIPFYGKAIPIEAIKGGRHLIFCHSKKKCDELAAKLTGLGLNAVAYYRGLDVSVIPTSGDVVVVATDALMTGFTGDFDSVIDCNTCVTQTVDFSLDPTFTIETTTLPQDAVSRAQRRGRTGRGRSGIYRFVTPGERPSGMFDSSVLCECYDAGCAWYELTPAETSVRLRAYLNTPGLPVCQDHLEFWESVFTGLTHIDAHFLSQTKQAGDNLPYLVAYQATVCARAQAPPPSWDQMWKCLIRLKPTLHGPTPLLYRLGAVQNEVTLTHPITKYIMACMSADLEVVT
Experimental: as §1

[6] = system: HCV replicon-containing, Huh-7-derived cell lines; conditions: human
[7] = Dixon and Cornish-Bowden plots, GraFit

SMILES	inhibition of GBV-B replication (FIG. 7) [1]	reduction in the viral RNA levels ([1]; 10 μM, 7 days post infection, g.e./μg RNA)	Ki [2]	Ki [3]	Ki [4]	mode of inhibition, HCV genotype 1a NS3-NS4A protease [4, 7]	mode of inhibition, HCV genotype 1b NS3-NS4A protease [5, 7]	Ki ([5]; read-out: Ki HCV genotype 1b NS3-NS4A protease, steady-state velocity analysis)	Cytotoxicity (concentration at which not observed) [6]
COc1ccc2c(O[C@@H]3C[C@H]4C(=O)N[C@]5(C(=O)O)CC5/C=C\CCCCC[C@H](NC(=O)OC(C)(C)C)C(=O)N4C3)cc(-c3csc(NC(C)=O)n3)nc2c1 (stereo partly drawn) [III]	dose-dependent inhibition	> 3 log	–	–	–	–	–	–	–
COc1ccc2c(O[C@@H]3C[C@H]4C(=O)N[C@]5(C(=O)O)CC5/C=C\CCCCC[C@H](NC(=O)OC5CCCC5)C(=O)N4C3)cc(-c3csc(NC(C)C)n3)nc2c1 (stereo partly drawn) [IV]	–	–	90 nM	83 nM	0.3 nM	competitive	competitive	0.66 nM	higher than 1000 nM
